The text below walks through data of article PMC9317670, “Temporal and Wash-Out Studies Identify Medicines for Malaria Venture Pathogen Box Compounds with Fast-Acting Activity against Both Trypanosoma cruzi and Trypanosoma brucei” (Microorganisms, 2022).

The subject of assay [1] is T.b. brucei bloodstream 427 strain parasites. Nature of the assay: T.b. brucei 72 h REDOX-based (resazurin) viability assay. Format: cell-based, Trypanosoma brucei brucei. The settings on record: for Emax / IC50 / Emax % (T.b. brucei): 72 h; for SI (T.b. brucei) HEK: selectivity index in relation to HEK293 cells.
The next assay relates to HEK293 cells. Description: HEK293 cytotoxicity assay. Format: cell-based, human. The note with it: HEK293, 72 h; NA = not active; highest dose 79 µM unless given.
Assay [2] deals with T.b. brucei. Nature of the assay: T.b. brucei temporal viability (time-kill) assay, 24 h, PrestoBlue. The note with it: for Emax: read-out: Emax 24 h T.b. brucei (converted); for IC50: read-out: IC50 24 h T.b. brucei. Format: cell-based, Trypanosoma brucei brucei. On the procedure: Time-kill assays was undertaken as previously described, using the REDOX reagent PrestoBlue® [24]. […] Control compounds were added at the same concentrations at outlined for the resazurin-based assays.

Assay [3] deals with T.b. brucei. Nature of the assay: T.b. brucei temporal viability (time-kill) assay, 48 h, PrestoBlue. Format: cell-based, Trypanosoma brucei brucei. The note with it: for Emax: read-out: Emax 48 h T.b. brucei (converted); for IC50: read-out: IC50 48 h T.b. brucei.
The subject of a further assay is T. cruzi and T.b. brucei. Nature of the assay: Speed of action and cidality classification from temporal and wash off assays. It counts as cell-based, Trypanosoma cruzi, Trypanosoma brucei brucei. The note with it: TC = T. cruzi, TBB = T.b. brucei.
The test system of assay [4] is T. cruzi Tulahuen strain parasites in 3T3 host cells. Nature of the assay: T. cruzi 48 h image-based assay. Format: cell-based, Trypanosoma cruzi. The note with it: for Emax % (T. cruzi) / IC50: 48 h; for IC50: read-out: IC50 (T. cruzi); for SI (T. cruzi) 3T3: selectivity index in relation to 3T3 host cells, highest dose 3T3 73 µM; for SI (T. cruzi) HEK: selectivity index in relation to HEK293 cells.

The subject of the next assay is T. cruzi. Description: T. cruzi compound wash off assay (48 h with compound, wash off, 72 h without). It counts as cell-based, Trypanosoma cruzi. The settings on record: T. cruzi.

In the case of `C[C@@H]1[C@H](O)[C@@H](C)/C=C/C=C/C=C/C=C/C=C/C=C/C=C/[C@H](O[C@@H]2O[C@H](C)[C@@H](O)[C@H](N)[C@@H]2O)C[C@@H]2O[C@](O)(C[C@@H](O)C[C@@H](O)[C@H](O)CC[C@@H](O)C[C@@H](O)CC(=O)O[C@H]1C)C[C@H](O)[C@H]2C(=O)O` [Amphotericin B, reference compound], the Emax (in assay [1] (Trypanosoma brucei); with T.b. brucei [2] (Trypanosoma brucei); in the assay on T.b. brucei [3] (Trypanosoma brucei)) was 100% each time. For the same compound, the figures for the IC50 (in assay [1] (Trypanosoma brucei); in the assay on T.b. brucei [2] (Trypanosoma brucei); with T.b. brucei [3] (Trypanosoma brucei)) were 1500 ± 88 nM, 880 ± 163 nM and 260 ± 1.6 nM, respectively. Further, in assay [1], the “SI (T.b. brucei) HEK” value is reported as more than 2.6. Moreover, the “IC50 HEK” value with HEK293 cells is “NA at 4.0 µM (NT)”. Further, in the assay with T. cruzi and T.b. brucei, the “Speed of Action (FA/SA)” value was “FA (Fast-acting (FA) = IC50 value can be determined following 24 h incubation, <10-fold difference in the IC50 value from 24 to 72 h)”.
`N=C(N)c1ccc(/N=N/Nc2ccc(C(=N)N)cc2)cc1` [Diminazene aceturate, reference compound]: the Emax in assay [1] (Trypanosoma brucei) was 100%; with T.b. brucei [2] (Trypanosoma brucei) it was 99%; in the assay with T.b. brucei [3] (Trypanosoma brucei), 100%. The results for the IC50 (in assay [1] (Trypanosoma brucei); with T.b. brucei [2] (Trypanosoma brucei); in the assay with T.b. brucei [3] (Trypanosoma brucei)) were 37 ± 0.41 nM, 210 ± 58 nM and 70 ± 27 nM, respectively. Also, the “SI (T.b. brucei) HEK” value in assay [1] is listed as more than 1027. For the same compound, the “IC50 HEK” value in the assay on HEK293 cells is recorded as “NA at 38 µM (NT)”. In addition, the “Speed of Action (FA/SA)” value with T. cruzi and T.b. brucei is reported as “FA (Fast-acting (FA) = IC50 value can be determined following 24 h incubation, <10-fold difference in the IC50 value from 24 to 72 h)”.
Take `CN1CCC(NCc2cccc(-c3ccc(S(=O)(=O)NCc4ccccc4)cc3)c2)CC1` [MMV 22029]: in assay [1], the “Emax % (T.b. brucei)” value is 99%, half-maximal inhibition (IC50) required 1500 ± 59 nM and the “SI (T.b. brucei) HEK” value worked out at 5.6. For the same compound, the “SI (T.b. brucei) HEK” value in assay [1] (listed as MMV022029) was less than 10. Further, in assay [4], the “Emax % (T. cruzi)” value is listed as 100%, the IC50 amounted to 8200 ± 690 nM, the “SI (T. cruzi) 3T3” value was 1.2 and the “SI (T. cruzi) HEK” value is 1.0 (NT). The “SI (T. cruzi) HEK” value in assay [4] (listed as MMV022029) is recorded as less than 10. The same compound gave a 50% inhibitory concentration (IC50) in the assay with HEK293 cells of 8100 ± 54 nM.
Regarding `O=C(Nc1ccc(N2CCNCC2)cc1)c1ccn2ncc(-c3cccc(Cl)c3)c2n1` [MMV 22478], in assay [1], the “Emax % (T.b. brucei)” value stood at 98%, the concentration for half-maximal inhibition (IC50) was found to be 1500 ± 180 nM and the “SI (T.b. brucei) HEK” value was 8.0. Besides, in assay [1] (listed as MMV022478), the “SI (T.b. brucei) HEK” value is given as less than 10. Besides, in assay [4], the “Emax % (T. cruzi)” value was determined as 100%, the IC50 stood at 5900 ± 1300 nM, the “SI (T. cruzi) 3T3” value was found to be 1.04 and the “SI (T. cruzi) HEK” value is recorded as 2.03 (NT). The “SI (T. cruzi) HEK” value in assay [4] (listed as MMV022478) is listed as less than 10. Further, it took 12000 ± 390 nM to reach half-maximal inhibition in the assay with HEK293 cells (IC50).
With `OCCc1ccc(Nc2nccc(-c3nnc4ccccn34)n2)cc1` [MMV 028694], in assay [1], the “Emax % (T.b. brucei)” value is recorded as 100%, the IC50 turned out to be 830 ± 57 nM and the “SI (T.b. brucei) HEK” value worked out at 12. Further, in assay [4], the “Emax % (T. cruzi)” value is given as 98%, the 50% inhibitory concentration (IC50) was 9400 ± 1800 nM, the “SI (T. cruzi) 3T3” value was more than 7.8 and the “SI (T. cruzi) HEK” value is given as 1.0 (NT). Moreover, in assay [4] (listed as MMV028694), the “Emax % (T. cruzi)” value was more than 95%, the “SI (T. cruzi) 3T3” value is given as more than 7.8 and the “SI (T. cruzi) HEK” value came to 1. Moreover, in the assay on HEK293 cells, the half-maximal inhibitory concentration (IC50) was determined as 9700 ± 50 nM. Moreover, the “Emax Wash Off” value with T. cruzi (48 h incubation, wash off, further 72 h) was determined as 98%. For the same compound, the concentration for half-maximal inhibition (IC50) in the assay on T. cruzi (48 h incubation, wash off, further 72 h, read-out: IC50 Wash Off) is 12000 ± 1800 nM. Besides, the “Fold Change of IC50, wash off vs 48 h” value in the assay on T. cruzi (IC50 from 48 h incubation to IC50 following wash off and further 72 h) worked out at 1.2 fold. In addition, in the assay with T.b. brucei [2], the “Emax 24 h T.b. brucei” value came to 87% and the half-inhibitory concentration (IC50) worked out at 700 ± 190 nM. In the assay on T.b. brucei [3], the “Emax 48 h T.b. brucei” value was 100% and the IC50 worked out at 710 ± 130 nM. For the same compound, the “Speed of Action (FA/SA)” value with T. cruzi and T.b. brucei is reported as “SA (TC)”.
